Laboratory results published in PMC4440778, “Structure-Activity Relationship and Mode of Action of a Frog Secreted Antibacterial Peptide B1CTcu5 Using Synthetically and Modularly Modified or Deleted (SMMD) Peptides” (PLoS ONE, 2015).
≈ marks a conversion by molar mass, not a printed value. Where a SMILES comes first, the peptide text is derived from it. Bridges are numbered along the chain shown (N, C = ends).

What was measured:
PBMCs = type: cell-based, human
Procedure: Peripheral blood mononuclear cells (PBMCs) were isolated from heparanised blood of healthy individuals. Five milliliter of blood was diluted with PBS (pH 7.4), and layered above 5 ml of histopaque and centrifuged at 1200 rpm for 30 min at room temperature. The upper layer was discarded, and the interphase containing PBMCs were carefully withdrawn and washed with PBS. It was centrifuged at 1500 rpm at room temperature for 10 min, the pellets were resuspended in RPMI medium and the cells were counted.
(§1) Cytotoxicity of the peptides against human embryonic kidney (HEK) cells, skin cancer cells (A431) and PBMCs were evaluated by 3-[4, 5-dimethylthiazol-2-yl]-2, 5-diphenyl tetrazolium bromide (MTT) assay. Peptide solution prepared in less than 0.2% DMSO (10–100 μg/ml) was treated with initially seeded 10,000 cells per well for HEK and A431 cells. To assess peptide cytotoxicity in PBMCs, MTT assay was performed by adding different concentrations of the respective peptides to 96 well plate containing 40,000 PBMCs per well, in triplicate. The conversion of MTT into […] was determined by measuring the absorbance at 570 nm.

[1] = tested on: human embryonic kidney (HEK) cells; type: cell-based
Procedure: as §1

S. aureus ATCC 9542 = settings: ATCC 9542, 24 h
Procedure: (§2) Bacterial cultures were grown in Luria Bertani broth (Hi-media) by overnight incubation at 37°C with constant shaking. Microbial cultures having 10^6 CFU/ml were made from OD 0.6 culture. Respective peptide stock concentration (1mg/ml) were prepared in sterile water and diluted in LB broth to make concentrations ranging from 1–200 μg/ml. Bacterial culture (50 μl) was treated with 50 μl of individual peptide amide solution of various concentrations and incubated for 24 h at 37°C with constant shaking in a 96 well microtitre plate. […] The minimum inhibitory concentration (MIC) was taken as the dose at which 100% of growth inhibition was observed and was calculated from the graph. MIC was calculated from independent experiments performed in triplicate.

[2] = tested on: V. cholerae (clinical isolates); settings: 24 h
Procedure: as §2

B. coagulans ATCC 7050 = settings: ATCC 7050, 24 h
Procedure: as §2

B. subtilis MTCC 14416 = settings: MTCC 14416, 24 h
Procedure: as §2

E. coli MG 1655 = settings: MG 1655, 24 h
Procedure: as §2

P. aeruginosa ATCC 27853 = settings: ATCC 27853, 24 h
Procedure: as §2

skin cancer cells (A431) = type: cell-based, human
Procedure: as §1

| SMILES | CC 50 (PBMCs) | CC 50 [1] | MIC (S. aureus ATCC 9542) | MIC [2] | MIC (B. coagulans ATCC 7050) | MIC (B. subtilis MTCC 14416) | MIC (E. coli MG 1655) | MIC (P. aeruginosa ATCC 27853) | CC 50 (skin cancer cells (A431)) |
| --- | --- | --- | --- | --- | --- | --- | --- | --- | --- |
| CC[C@H](C)[C@@H]1NC(=O)[C@H](CCCCN)NC(=O)[C@@H](NC(=O)[C@H](CC(C)C)NC(=O)[C@@H](NC(=O)[C@H](CCC(N)=O)NC(=O)[C@@H]2CCCN2C(=O)[C@H](CC(C)C)NC(=O)[C@H](Cc2ccccc2)NC(=O)[C@H](CC(N)=O)NC(=O)[C@H](C)NC(=O)[C@H](C)NC(=O)[C@H](CC(C)C)NC(=O)CNC(=O)[C@H](C)NC(=O)[C@@H](NC(=O)[C@@H](N)Cc2c[nH]cn2)[C@@H](C)CC)[C@@H](C)CC)CSSC[C@@H](C(N)=O)NC(=O)[C@H](CCCCN)NC(=O)[C@H](CCCNC(=N)N)NC(=O)[C@H](C)NC1=O [B1CTcu5H] (H-HIAGLAANFLPQILCKIARKC-NH2; disulfide 15-21) | 90 ± 2.56 µg/mL (≈ 39.5 µM) | >100 µg/mL | >100 µg/mL | 25 µg/mL (≈ 11 µM) | 25 µg/mL (≈ 11 µM) | 50 µg/mL (≈ 22 µM) | 50 µg/mL (≈ 22 µM) | >100 µg/mL | >100 µg/mL |
| CC[C@H](C)[C@@H]1NC(=O)[C@H](CCCCN)NC(=O)[C@@H](NC(=O)[C@H](CC(C)C)NC(=O)[C@@H](NC(=O)[C@H](CCC(N)=O)NC(=O)[C@@H]2CCCN2C(=O)[C@H](CC(C)C)NC(=O)[C@H](Cc2ccccc2)NC(=O)[C@H](CC(N)=O)NC(=O)[C@H](C)NC(=O)[C@H](C)NC(=O)[C@@H](N)CC(C)C)[C@@H](C)CC)CSSC[C@@H](C(N)=O)NC(=O)[C@H](CCCCN)NC(=O)[C@H](CCCNC(=N)N)NC(=O)[C@H](C)NC1=O [B1CTcu5-LIAG] (H-LAANFLPQILCKIARKC-NH2; disulfide 11-17) | >100 µg/mL | >100 µg/mL | 6.25 µg/mL (≈ 3.29 µM) | 12.5 µg/mL (≈ 6.58 µM) | 25 µg/mL (≈ 13.2 µM) | 50 µg/mL (≈ 26.3 µM) | 12.5 µg/mL (≈ 6.58 µM) | >100 µg/mL | >100 µg/mL |
| CC[C@H](C)[C@@H]1NC(=O)[C@H](CCCCN)NC(=O)[C@@H](NC(=O)[C@H](CC(C)C)NC(=O)[C@@H](NC(=O)[C@H](CCC(N)=O)NC(=O)[C@@H]2CCCN2C(=O)[C@H](CC(C)C)NC(=O)[C@H](Cc2ccccc2)NC(=O)[C@H](CC(N)=O)NC(=O)[C@H](C)NC(=O)[C@H](C)NC(=O)[C@H](CC(C)C)NC(=O)CNC(=O)[C@H](C)NC(=O)[C@@H](NC(=O)[C@@H](N)CCCCN)[C@@H](C)CC)[C@@H](C)CC)CSSC[C@@H](C(N)=O)NC(=O)[C@H](CCCCN)NC(=O)[C@H](CCCNC(=N)N)NC(=O)[C@H](C)NC1=O [B1CTcu5K] (H-KIAGLAANFLPQILCKIARKC-NH2; disulfide 15-21) | >100 µg/mL | >100 µg/mL | 12.5 µg/mL (≈ 5.51 µM) | 25 µg/mL (≈ 11 µM) | 12.5 µg/mL (≈ 5.51 µM) | 100 µg/mL (≈ 44.1 µM) | 25 µg/mL (≈ 11 µM) | >100 µg/mL | >100 µg/mL |
| CC[C@H](C)[C@@H]1NC(=O)[C@H](CCCCN)NC(=O)[C@@H](NC(=O)[C@H](CC(C)C)NC(=O)[C@@H](NC(=O)[C@H](CCC(N)=O)NC(=O)[C@@H]2CCCN2C(=O)[C@H](CC(C)C)NC(=O)[C@H](Cc2ccccc2)NC(=O)[C@H](CC(N)=O)NC(=O)[C@H](C)NC(=O)[C@H](C)NC(=O)[C@H](CC(C)C)NC(=O)CNC(=O)[C@H](C)NC(=O)[C@@H](NC(=O)[C@@H](N)CCCNC(=N)N)[C@@H](C)CC)[C@@H](C)CC)CSSC[C@@H](C(N)=O)NC(=O)[C@H](CCCCN)NC(=O)[C@H](CCCNC(=N)N)NC(=O)[C@H](C)NC1=O [B1CTcu5R] (H-RIAGLAANFLPQILCKIARKC-NH2; disulfide 15-21) | 96.1 ± 1.22 µg/mL (≈ 41.8 µM) | >100 µg/mL | 25 µg/mL (≈ 10.9 µM) | 12.5 µg/mL (≈ 5.44 µM) | 12.5 µg/mL (≈ 5.44 µM) | 50 µg/mL (≈ 21.8 µM) | 25 µg/mL (≈ 10.9 µM) | >100 µg/mL | >100 µg/mL |
